# Results reported in patent US11919854B2, “P2RX7 modulators in therapy” (Centre national de la recherche scientifique, priority 2018, dated 2024).
# Key:
# [1] = tested on: NCI panel of 60 tumor cell lines; assay: Toxicity on NCI panel of 60 tumor cell lines; type: cell-based; details: HEK cell lines stably transfected with hP2RX7 or mP2RX7 and NCI panel of 60 human tumor cell lines
# Excerpt: Toxicity of HEI_2333 and HEI_2336 was already tested on the NCI panel of 60 tumor cell lines (NCI 60-cell panel).
# mouse P2RX7 = molecular target: T1, mouse P2RX7 (Mus musculus, UniProt Q9Z1M0); assay: Calcium influx and large cation permeation by FACS, 15 min, HEK cells with mouse P2RX7, increasing doses of BzATP; type: cell-based; details: 15 min stimulation
# T1 construct: expressed in transfected cells; host or cells: HEK cells
# T1 sequence (Q9Z1M0 1-595): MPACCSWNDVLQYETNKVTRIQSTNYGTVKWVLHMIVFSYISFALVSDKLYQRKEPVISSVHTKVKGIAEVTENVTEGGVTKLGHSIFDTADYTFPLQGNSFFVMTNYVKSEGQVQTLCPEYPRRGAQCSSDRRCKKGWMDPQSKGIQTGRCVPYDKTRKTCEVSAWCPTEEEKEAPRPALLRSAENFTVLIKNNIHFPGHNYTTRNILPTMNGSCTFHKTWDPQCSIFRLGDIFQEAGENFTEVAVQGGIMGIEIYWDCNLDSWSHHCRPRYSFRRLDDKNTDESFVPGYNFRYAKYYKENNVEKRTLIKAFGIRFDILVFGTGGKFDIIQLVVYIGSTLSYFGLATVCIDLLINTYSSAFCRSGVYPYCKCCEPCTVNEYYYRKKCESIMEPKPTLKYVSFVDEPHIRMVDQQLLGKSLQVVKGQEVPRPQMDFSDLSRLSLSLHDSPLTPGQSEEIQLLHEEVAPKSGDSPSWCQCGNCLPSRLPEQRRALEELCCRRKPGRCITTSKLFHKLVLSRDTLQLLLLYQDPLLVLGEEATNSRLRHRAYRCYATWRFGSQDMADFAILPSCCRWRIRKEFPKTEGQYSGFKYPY
# Method: Calcium influx (Fluo-AM positive cells) and large cation permeation (Topro3 positive cells) were assayed by FACS 15 min after stimulation of HEK cells transfected with the mouse P2RX7 treated with increasing doses of BzATP.
# (§1) Complementary analyses were also performed to document the biological activity of HEI3090, the more soluble version of HEI2328, on both HEK cells expressing mouse P2RX7 (mP2RX7) (FIG. 14) or human P2RX7 (hP2RX7) (FIG. 15). BzATP or ATP stimulate channel activity, an event that occurred in the first minutes of P2RX7 stimulation. […] The same positive effect was observed on cells expressing human P2RX7 (FIG. 15).
# human P2RX7 [2] = molecular target: T2, human P2RX7 (Homo sapiens, UniProt Q99572); assay: Calcium influx and large cation permeation by FACS, 15 min, HEK cells with human P2RX7, increasing doses of HEI3090; type: cell-based; details: increasing doses of HEI3090, 7.8 μM BzATP
# T2 construct: expressed in transfected cells; host or cells: HEK cells
# T2 sequence (Q99572 1-595): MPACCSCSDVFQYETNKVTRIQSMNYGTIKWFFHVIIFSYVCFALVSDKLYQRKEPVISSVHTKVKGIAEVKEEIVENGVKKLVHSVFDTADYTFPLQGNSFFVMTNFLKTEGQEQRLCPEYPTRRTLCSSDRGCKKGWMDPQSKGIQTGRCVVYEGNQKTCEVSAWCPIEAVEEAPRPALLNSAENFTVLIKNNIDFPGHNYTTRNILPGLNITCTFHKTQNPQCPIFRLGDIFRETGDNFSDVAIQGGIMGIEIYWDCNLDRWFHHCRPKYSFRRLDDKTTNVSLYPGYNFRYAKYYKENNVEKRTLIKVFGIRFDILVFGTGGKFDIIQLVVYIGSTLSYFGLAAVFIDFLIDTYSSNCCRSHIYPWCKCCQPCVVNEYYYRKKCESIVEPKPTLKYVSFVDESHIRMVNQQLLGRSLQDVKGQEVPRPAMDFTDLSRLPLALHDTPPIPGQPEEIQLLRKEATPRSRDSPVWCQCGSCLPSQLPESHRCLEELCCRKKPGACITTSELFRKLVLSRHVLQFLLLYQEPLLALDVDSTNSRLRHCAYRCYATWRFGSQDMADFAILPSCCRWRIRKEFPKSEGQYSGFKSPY
# Method: Calcium influx (Fluo-AM positive cells) and large cation permeation (Topro3 positive cells) were assayed by FACS 15 min after stimulation of HEK cells transfected with the human P2RX7 that were treated with increasing doses of HEI3090 in the presence of 7.8 μM BzATP.
# as §1
# human P2RX7 [3] = molecular target: T2, human P2RX7; assay: Large pore opening with increasing BzATP in human P2RX7 expressing cells; type: cell-based; details: increasing concentration of BzATP with or without HEI3090
# Method: A. Splenocytes from control or p2rx7^exon2 KO mice were isolated and treated with HEI3090 (50 μM) in presence of absence of BzATP (500 μM). B. Large pore opening induced by increasing concentration of BzATP in presence or absence of HEI3090 in human P2RX7 expressing cells.
# Indeed, with the same BzATP concentration, more cells are positive for Topro3 staining.
# B16-F10 cells = assay: In vivo assay for immunogenic cell death (ICD), B16-F10; set-up: species or system mice; details: B16-F10 exposed to 3 mM ATP and 50 μM HEI3090, contralateral challenge
# Method: a-b. In vivo assay for the evaluation of HEI3090 as an inducer of immunogenic cell death.
# To induce B16-F10 death, cells were exposed to 3 mM ATP and 50 μM HEI3090 and 1.105 dying cells, or PBS as control, were injected sc in the right flank (n=4). 7 days later, 0.5.105 live B16-F10 cells were injected s.c. in the contralateral flank. (a). Curves shown mean of tumor growth in the contralateral site (b).
# The inventors performed dedicated experiment to test the hypothesis that HEI3090 may induce immunogenic cell death (ICD).
compound,measurement,setting,value
"O=C(NCc1ccc(Cl)cc1Cl)[C@@H]1CCC(=O)N1C(=O)Nc1ccc(Cl)nc1 [HEI3090, (S)—N^1-(6-Chloropyridin-3-yl)-N^2-(2,4-dichlorobenzyl)-5-oxopyrrolidine-1,2-dicarboxamide]",toxicity in absence of the endogenous P2RX7 ligand (ATP),[1],non-toxic
same,decrease of the EC50 (BzATP) in the presence of HEI3090,"mouse P2RX7; increasing doses of BzATP, HEI3090 250 nM",22%
same,shift of the EC50 for BzATP,mouse P2RX7; low dose of HEI3090 (250 nM),shift to the left of the EC50 for BzATP
same,increase of Ca influx (Fluo-AM positive cells),human P2RX7 [2],3 fold
same,increase of large cation influx (Topro3 positive cells),human P2RX7 [2],3 fold
same,large pore opening (Topro3 staining),human P2RX7 [3],enhanced large pore opening in presence of BzATP
same,induction of immunogenic cell death (ICD),B16-F10 cells,does not promote ICD
